Measured values from patent US20110033837A1 (priority 2007, published 2011).

Assays:
[1] = tested on: primary HIV-1 isolates; details: isolates P-31, P-41-0, P41-28 and P-51; IsnoR5 clone 2 cells; 1 μg/ml AMD 3100
Experimental: Virus-containing supernatants, normalized to 5 ng/ml HIV-1 Gag p24, were titrated in the IsnoR5 clones in the absence and presence of 1 μg/ml AMD 3100. After 14 days, cell free supernatants tested for viral Gag protein by p24 antigen capture assay. The number of positive wells was used to determine the TCID50 of the original sample.
Virus isolation was performed as previously described (Holtkamp et al., 2000) except that viral replication was detected using an antigen capture enzyme-linked immunosorbent assay (ELISA) for the HIV-1 Gag p24 core protein. Inactivated supernatants (0.2% Tween 20) were titrated on ELISA plates coated with the Gag-specific monoclonal antibody Ag3.0 (hybridoma kindly provided by Jon Allan, Southwest Foundation, San Antonio, Tex., USA). […] Captured protein was detected using pooled sera from HIV-1 positive individuals followed by a goat antihuman immunoglobulin G-peroxidase conjugate (Sigma-Aldrich, Taufkirchen, Germany). Virus levels were calculated by comparison with a standard HIV-1 supernatant of known p24 Gag concentration.
Virus-containing supernatants were serially diluted in media and aliquoted (50 μl per well, six replicates per dilution) into U-well microtiter plates containing 2×10^5 of IsnoR5 clones 1 or 2 or 4.5×10^5 PBMC from healthy blood donors in 150 μl medium. […]

[2] = tested on: CXCR4-tropic virus strains; details: cited from earlier work
[3] = tested on: dualtropic viruses that use CCR5 and CXCR4; details: human PBMC; cited from earlier work

## c1cc(CN2CCCNCCNCCCNCC2)ccc1CN1CCCNCCNCCCNCC1 [AMD 3100]
[1]
  Replication of isolates in the presence of AMD 3100 (FIG. 5): all were inhibited from replication
[2]
  Infection of cells by CXCR4-tropic virus strains: preventing infection
[3]
  Block of dualtropic viruses: efficiently block
